Assay results as given in article PMC5458644 (Neoplasia (New York, N.Y.), 2017).
One block for each molecule: values may come before it.

Assays:
[1] = tested on: MCA205 tumor cells; experiment: Experimental lung metastasis model, MCA205 cells i.v.; assay type: in vivo, C57Bl/6 mice; conditions: 30 mg/kg/day oral gavage, daily for 7 days, vs vehicle, P < .05
[2] = tested on: human tumor-infiltrating lymphocytes (TILs); experiment: Ex vivo assay of disaggregated resected NSCLC tumors, γ-interferon ELISA; assay type: cell-based; conditions: tumors of Figure 5 A and B; 3 days culture
[3] = tested on: B16-CD73+ tumor cells; experiment: Experimental lung metastasis model, B16-CD73+ cells i.v.; assay type: in vivo, C57Bl/6 mice; conditions: 15 mg/kg/day oral gavage, daily for 15 days, vs vehicle, P < .05
[4] = Secondary pharmacology panel; conditions: 10 μM initial screen; apart from adenosine receptors; data not shown
[5] = tested on: A2aR; conditions: alone or in combination with anti-PD-1 and anti-CTLA4; cited from earlier work

effect in secondary pharmacology profile [4]: did not show any relevant effect
SMILES: Nc1nc(-n2cccn2)nc(-n2cccn2)c1Br [PBF-509]
tumor burden (lung nodules, lung weight) [1]: significantly reduced tumor burden
TIL function (γ-interferon), combination of PBF-509 with anti-PD-L1 [2]: improved TIL function in an additive fashion
tumor burden (lung nodules, lung weight) [3]: significantly reduced tumor burden

SMILES: Nc1nc2c(cnn2CCc2ccccc2)c2nc(-c3ccco3)nn12 [SCH58261]
tumor burden in vivo [5]: decreased tumor burden

SMILES: Nc1nc(NCCc2ccc(O)cc2)nc2nc(-c3ccco3)nn12 [ZM241385]
tumor burden in vivo [5]: decreased tumor burden
